The values below come from patent US20120164729A1, “COMPOSITION FOR CULTURING PLURIPOTENT STEM CELLS AND USE THEREOF” (NATIONAL UNIVERSITY CORPORATION CHIBA UNIVERSITY, priority 2010, published 2012).

Assay type in all cases: cell-based, human
Experiment [1] concerns 201B7 cells. Briefly: Confirmation of maintenance of undifferentiation potency by alkaline phosphatase (ALP) staining and phase contrast morphology. An excerpt: It was confirmed by alkaline phosphatase (ALP) staining that the 201B7 cells cultured in the presence of activin A maintained undifferentiation potency. Meanwhile, the photographs on the left side of FIG. 3 are images observed with a phase contrast microscope, and the photographs on the right side are images observed after ALP staining.

Experiment [2] has as its system 201B7 cells. Briefly: Alkaline phosphatase staining of subcultured cells at the 12th passage. The settings on record: activin A 10 ng/mL, CHIR99021 2 μM, LIF 1000 U/mL. An excerpt:
Among the cells that had been subcultured as described above, those subcultured in the presence of activin A alone (A), a combination of activin A+CHIR99021 (AC), and a combination of activin A+CHIR99021+LIF (ACL) were subjected to alkaline phosphatase staining as described above, at the 12th passage. The results are shown in the photographs on the left side of FIG. 5.

The subject of experiment [3] is 201B7 cells. Briefly: Immunostaining of subcultured cells for pluripotency markers (Oct3/4, Nanog, SSEA4, TRA-1-60). The settings on record: cells subcultured from the 11th passage. On the procedure:
Each of the cells at the 11th passage was seeded on a Matrigel-coated 4-well slide glass, and subculture was continued. When the cells reached 70% confluency, the medium was removed, and the cells were washed once with PBS. The cells were immobilized with 4% para-formaldehyde, and then were washed three times with PBS. Meanwhile, in the case of staining for Oct3/4 and Nanog, a permeabilization solution (0.2% Triton X-100 (PBS solution)) was added to the cells, and the cells were left to stand for 15 minutes at room temperature. Subsequently, the cells were washed three times for 5 minutes with a washing buffer (2% FBS (PBS solution)).
Thereafter, primary antibodies diluted with the washing buffer were added to the cells, and the cells were left to stand overnight at 4° C. Meanwhile, the types of the various primary antibodies and the dilution ratios are as follows.
Mouse anti-Oct3/4 antibody (BD Transduction Laboratories): 200 times
Rabbit anti-Nanog antibody (manufactured by ReproCELL Inc.): 1000 times
Mouse anti-SSEA4 antibody (manufactured by Chemicon Corporation): 200 times
Mouse anti-TRA-1-60 antibody (manufactured by Chemicon Corporation): 200 times
Subsequently, the cells were […] three times for 5 minutes with the washing buffer, and then secondary antibodies diluted with the washing buffer were added. The cells were left to stand for one hour at 4° C. […]

For experiment [4], the system named is 201B7 cells. Briefly: Evaluation of cell proliferative capacity by MTS assay. Particulars: FIG. 2. On the procedure: The proliferative capacity of 201B7 cells that had been cultured in the presence of activin A was evaluated by an MTS assay.
In experiment [5] the test system is 201B7 cells. Briefly: Effect of activin A on differentiation of embryoid bodies formed by hanging drop culture (microscopic observation). Particulars: activin A 100 ng/mL instead of bFGF; at least 14 days after the initiation of culture; Matrigel-coated plate. On the procedure: Cell culture was carried out using cells of strain HPS0001 201B7, which are human induced pluripotent stem cells (iPS cells), obtained from RIKEN BioResource Center, Cell Bank. The cell culture was carried out in a humidified chamber at 37° C. under the conditions of 5% CO2 using, as a medium, Dulbecco […] (DMEM)-F12 medium (manufactured by Sigma-Aldrich Japan K.K.) supplemented with a knockout serum replacement additive (KSR; manufactured by Life Technologies Japan, Ltd. (final concentration 20%), a 1/100 dilution of 100-times concentrated […] (manufactured by Life Technologies Japan, Ltd.), 2 mM L-glutamine (manufactured by Life Technologies Japan, Ltd.), 0.1 mM 2-mercaptoethanol (manufactured by Sigma-Aldrich Japan K.K.), and 5 ng/mL of basic fibroblast growth factor (bFGF; manufactured by Wako Pure Chemical industries, Ltd.). At this time, 201B7 cell line was proliferated by co-culturing 201B7 cell line on cells of strain SNL76/7, which are mouse-derived fetal fibroblasts proliferated on a culture plate (manufactured by AGC Techno Glass Corp.) treated with mitomycin C (manufactured by Sigma-Aldrich Japan K.K.) and coated with gelatin (manufactured by Sigma-Aldrich Japan K.K.), and the 201B7 cell line was maintained. Also, at the time of subculturing, cells were collected using a CTK solution. […]

As for “activin A: homodimer of the β chain of inhibin A (βAβA), TGF-β superfamily protein; manufactured by R & D Systems, Inc.”, in experiment [1] (ALP staining and morphology), the “concentration of added activin A at which iPS cells can maintain undifferentiation potency” value fell in the range of 0.01 to 0.1 µg/mL. Besides, the ALP staining entry in experiment [1] (activin A 1 ng/mL), in experiment [1] (activin A 10 ng/mL), in experiment [1] (activin A 30 ng/mL), in experiment [1] (activin A 100 ng/mL) and in experiment [2] was “positive” throughout. Moreover, the cell morphology entry in experiment [1] (activin A 1 ng/mL) is listed as “slightly similar to fibroblasts”; in experiment [1] (activin A 10 ng/mL), “maintained an undifferentiated condition”; in experiment [1] (activin A 30 ng/mL), “maintained an undifferentiated condition”; in experiment [1] (activin A 100 ng/mL) it was “maintained an undifferentiated condition”. For the same substance, the “staining of nuclei by anti-Oct3/4 antibody” value in experiment [3] is “positively stained”. In addition, the “concentration of added activin at which 201B7 cells had proliferative capacity” value in experiment [4] fell in the range of 3 to 30 ng/mL. In addition, the “morphological condition of embryoid bodies” value in experiment [5] is on record as “maintained a morphologically undifferentiated condition”.
